Experimental data from the OligoGym collection.
After the bases stand the sugars from the 5' end (letter, count) and the backbone: PS all phosphorothioate, else s phosphorothioate and o phosphodiester by linkage. Methylation of C is not given here. e = 2'-O-(2-methoxyethyl) (MOE); k = constrained ethyl (cEt); d = 2'-deoxy (DNA); m = 2'-O-methyl

Molecular target: HSD17B13
Conditions: ASO, HepaRG, 0.02 µM

Row | Sequence | target mRNA inhibition [%]
1 | TGTATTTCGCTACTGT (sugars k3 d10 k3, PS) | 12

Same assay, conditions: ASO, HepaRG, 0.078 µM

Row | Sequence | target mRNA inhibition [%]
2 | TGTATTTCGCTACTGT (sugars k3 d10 k3, PS) | 18

Same assay, conditions: ASO, HepaRG, 0.313 µM

Row | Sequence | target mRNA inhibition [%]
3 | TGTATTTCGCTACTGT (sugars k3 d10 k3, PS) | 46

Same assay, conditions: ASO, HepaRG, 1 µM

Row | Sequence | target mRNA inhibition [%]
4 | TGTAATAGCCAGTACA (sugars k3 d1 m1 d8 k3, PS) | 40
5 | TGTAATAGCCAGTACA (sugars k3 d10 k3, PS) | 46
6 | TGTACAGTAGGCAGTT (sugars k3 d10 k3, PS) | 75
7 | TGTATCTTATAAGACT (sugars k3 d10 k3, PS) | 45
8 | TGTATTTCGCTACTGT (sugars k3 d10 k3, PS) | 76
9 | TGTCAGACCTCTGTGA (sugars k3 d10 k3, PS) | 0
10 | TGTCATAAAGGTGGGA (sugars k3 d10 k3, PS) | 48
11 | TGTCCACCTTTAAATG (sugars k3 d10 k3, PS) | 29
12 | TGTCCCAGCATTATTC (sugars k3 d10 k3, PS) | 31
13 | TGTCCTAGGATGTTGA (sugars k3 d10 k3, PS) | 41
14 | TGTGAAGAGCTGGTAA (sugars k3 d10 k3, PS) | 41
15 | TGTGACGATGTGGCCA (sugars k3 d10 k3, PS) | 42
16 | TGTGAGAGGATAGTGA (sugars k3 d10 k3, PS) | 50
17 | TGTGCACTCATTCTGT (sugars k3 d10 k3, PS) | 18
18 | TGTGGCATGGCTACAG (sugars k3 d1 m1 d8 k3, PS) | 5
19 | TGTGGCATGGCTACAG (sugars kkdddddddddkekek, PS) | 22
20 | TGTGTTAGCTTTAATT (sugars k3 d10 k3, PS) | 38
21 | TGTGTTCTTGTTGATA (sugars kkdddddddddkekek, PS) | 64
22 | TGTTAAGCAGATGGCT (sugars k3 d10 k3, PS) | 39
23 | TGTTAGCTAAGGGAGA (sugars k3 d10 k3, PS) | 0
24 | TGTTGATATTCTGTGG (sugars k3 d1 m1 d8 k3, PS) | 48

Row | Sequence | target mRNA inhibition [%]
25 | TGTTGATATTCTGTGG (sugars k3 d9 k3 e1, PS) | 64
26 | TTAAAATAGAGTCGGT (sugars k3 d1 m1 d8 k3, PS) | 70
27 | TTAAAATAGAGTCGGT (sugars k3 d10 k3, PS) | 65
28 | TTAAAATAGAGTCGGT (sugars kkdddddddddkekek, PS) | 51
29 | TTAAACCTTCCCTGTG (sugars k3 d1 m1 d8 k3, PS) | 23
30 | TTAAACCTTCCCTGTG (sugars k3 d10 k3, PS) | 22
31 | TTAAATCAGGCAGTCA (sugars k3 d10 k3, PS) | 45
32 | TTAAGATACCCAGGTT (sugars k3 d10 k3, PS) | 37
33 | TTAAGCAGATGGCTTA (sugars k3 d10 k3, PS) | 0
34 | TTAAGTACTGTGAGAC (sugars k3 d10 k3, PS) | 35
35 | TTAATGCCACCCTACC (sugars k3 d10 k3, PS) | 19
36 | TTACAGCCTTAGAGTG (sugars k3 d10 k3, PS) | 21
37 | TTACATCACCCACTTC (sugars k3 d10 k3, PS) | 37
38 | TTACGACTTCATCTGT (sugars k3 d10 k3, PS) | 36
39 | TTAGCAAGCTAAGAGA (sugars k3 d10 k3, PS) | 42
40 | TTAGCTGTGCACTCAT (sugars k3 d10 k3, PS) | 61
41 | TTAGGAAAGCTCATGG (sugars k3 d10 k3, PS) | 26
42 | TTAGTATAGTTATCTT (sugars kkdddddddddkekek, PS) | 33
43 | TTAGTCTTGATGTAGT (sugars k3 d9 k3 e1, PS) | 61
44 | TTAGTCTTGATGTAGT (sugars kkdddddddddkekek, PS) | 36
45 | TTAGTTAGAATAGTCT (sugars kkdddddddddkekek, PS) | 53

Same assay, conditions: ASO, HepaRG, 1.25 µM

Row | Sequence | target mRNA inhibition [%]
46 | TGTATTTCGCTACTGT (sugars k3 d10 k3, PS) | 80

Same assay, conditions: ASO, HepaRG, 5 µM

Row | Sequence | target mRNA inhibition [%]
47 | TGTATTTCGCTACTGT (sugars k3 d10 k3, PS) | 90
